The text below walks through data of EPA's ToxRefDB 2.

Bounds are passed on as bounds.

The subject of series [1] is rat. To be noted: Prenatal developmental toxicity study, sprague dawley, Oral, Gavage/Intubation, dose end: 16 GD.
Series [2] relates to dog. The following applies: Chronic toxicity; beagle; Oral; Feed; dose end: 12 month; group: systemic; systemic / clinical chemistry / sodium / sodium + systemic / in life observation / body weight / body weight + systemic / in life ….
Series [3] relates to rat. To be noted: Combined chronic toxicity/carcinogenicity; sprague dawley; Oral; Feed; dose end: 24 month; group: systemic; systemic / clinical chemistry / sodium / sodium.
For the next series, the system named is rabbit. The following applies: Prenatal developmental toxicity study, new zealand white, Oral, Gavage/Intubation, dose end: 19 GD, group: maternal.
Series [4] deals with rat. To be noted: Subchronic oral toxicity in rodents, fischer, Feed, dose end: 13 week, group: systemic, systemic / organ weight / adrenal gland / nos + systemic / organ weight / kidney / nos + systemic / organ weight / liver / nos + systemic / ….
The test system of series [5] is mouse. To be noted: Subchronic oral toxicity in rodents, cd1, Feed, dose end: 13 week, group: systemic.
The test system of series [6] is dog. The following applies: Chronic toxicity, beagle, Oral, Capsule, dose end: 52 week, group: systemic.
Series [7] has as its system dog. The following applies: Subchronic oral toxicity in nonrodent, beagle, Capsule, dose end: 13 week, group: systemic.
Series [8] relates to mouse. The following applies: Carcinogenicity, cd1, Oral, Feed, dose end: 18 month, group: systemic.
For series [9], the system named is rat. The following applies: Multigenerational reproductive toxicity study, Other, Oral, Feed, dose end: 2 generation.
The mark [10] stands for this setting: group: developmental, developmental / developmental malformation / bone / incomplete ossification + systemic / in life observation / body weight / fetal weight + ….
Where [11] appears, read: group: maternal, systemic / in life observation / body weight / body weight + systemic / in life observation / body weight / body weight gain + systemic / in….
Where [12] appears, read: systemic / organ weight / liver / relative to body weight.
Where [13] appears, read: systemic / organ weight / liver / relative to body weight + reproductive / reproductive performance / aborted / aborted + reproductive / ….
[14] abbreviates: systemic / pathology microscopic / liver / hypertrophy.
The mark [15] stands for this setting: systemic / pathology microscopic / liver / hypertrophy + systemic / clinical chemistry / alanine aminotransferase (alt/sgpt) / alanine ….
The mark [16] stands for this setting: systemic / pathology microscopic / liver / pigmentation + systemic / clinical chemistry / alkaline phosphatase (alp/alk) / alkaline ….
The mark [17] stands for this setting: systemic / clinical chemistry / alkaline phosphatase (alp/alk) / alkaline phosphatase (alp/alk) + systemic / pathology gross / liver / ….
Setting [18] is: systemic / organ weight / prostate / relative to body weight.
The mark [19] stands for this setting: systemic / organ weight / liver / relative to body weight + systemic / organ weight / liver / absolute.
Setting [20] is: group: offspring, systemic / in life observation / body weight / offspring (pup) weight + systemic / pathology gross / liver / discolored + systemic / ….
[21] abbreviates: group: parental, systemic / organ weight / liver / relative to body weight.
The mark [22] stands for this setting: group: parental, systemic / organ weight / liver / relative to body weight + systemic / in life observation / body weight / body weight + systemic / in life ….

For `CCOc1nc(NC)nc(NC(=O)NS(=O)(=O)c2ccccc2C(=O)OC)n1` [Ethametsulfuron-methyl], the LEL in the series on rat [1] (setting [10]) was 4000 mg/kg/day; in the series on rat [1] (setting [11]), 4000 mg/kg/day; in the series with dog [2], 478 mg/kg/day; in the series with rat [3], 210 mg/kg/day; in the series with rabbit (setting [12]), 1000 mg/kg/day. For the same compound, the LOAEL (as a rule, the lowest tested level that showed an adverse finding) was 4000 mg/kg/day with rat [1] (setting [10]); 4000 mg/kg/day in the series on rat [1] (setting [11]); 478 mg/kg/day in the series with dog [2]; more than 210 mg/kg/day in the series with rat [3]; 1000 mg/kg/day in the series with rabbit (setting [12]). In addition, the NEL with rat [1] (setting [10]) was 1000 mg/kg/day; in the series on rat [1] (setting [11]) it was 1000 mg/kg/day; in the series with dog [2], 87.3 mg/kg/day; in the series with rat [3] it was 21 mg/kg/day; in the series with rabbit (setting [13]), 250 mg/kg/day. Moreover, the NOAEL – broadly, the highest tested level that showed no adverse finding – is 1000 mg/kg/day in the series with rat [1] (setting [10]); 1000 mg/kg/day with rat [1] (setting [11]); 87.3 mg/kg/day in the series on dog [2]; not below 210 mg/kg/day with rat [3]; 250 mg/kg/day in the series with rabbit (setting [13]).

Turning to `CSC(=O)c1c(C(F)F)nc(C(F)(F)F)c(C(=O)SC)c1CC(C)C` [Dithiopyr], the LEL with rat [4] came out at 6.62 mg/kg/day; with mouse [5] (setting [14]), 11.8 mg/kg/day; with dog [6] (setting [16]), 5 mg/kg/day; with dog [7] (setting [18]), 1 mg/kg/day; in the series with mouse [8] (setting [12]), 3.27 mg/kg/day; in the series with rat [9] (setting [20]), 19.9 mg/kg/day. Besides, the LEL in the series with rat [9] (setting [21]) turned out to be 16.4 mg/kg/day. Besides, the lowest observed adverse effect level (LOAEL) in the series on rat [4] was 6.62 mg/kg/day; in the series with mouse [5] (setting [14]), 11.8 mg/kg/day; in the series on dog [6] (systemic / pathology microscopic / liver / pigmentation), 5 mg/kg/day; with dog [7] (setting [17]) it was 10 mg/kg/day; in the series on mouse [8] (setting [12]), 3.27 mg/kg/day; in the series on rat [9] (setting [20]), more than 218 mg/kg/day. Besides, in the series with rat [9] (setting [21]), the LOAEL stood at 16.4 mg/kg/day. Also, the NEL is 0.662 mg/kg/day in the series with rat [4]; 1.16 mg/kg/day with mouse [5] (setting [15]); 0.5 mg/kg/day in the series with dog [6] (setting [16]); less than 1 mg/kg/day in the series with dog [7] (setting [18]); 0.31 mg/kg/day in the series with mouse [8] (setting [19]); 2 mg/kg/day with rat [9] (setting [20]). In the series with rat [9] (setting [22]), the NEL stood at 1.7 mg/kg/day. Further, the NOAEL with rat [4] was 0.662 mg/kg/day; in the series with mouse [5] (setting [15]), 1.16 mg/kg/day; with dog [6] (setting [16]) it was 0.5 mg/kg/day; in the series with dog [7] (setting [17]), 1 mg/kg/day; with mouse [8] (setting [19]), 0.31 mg/kg/day; with rat [9] (setting [20]), not below 218 mg/kg/day. Also, the NOAEL with rat [9] (setting [22]) was determined as 1.7 mg/kg/day.
